Laboratory results from ChEMBL document CHEMBL1201862, “PubChem BioAssay data set” (2004).
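1) Cells in 96-well plates. 2) Compound, 48 h, 5 concentrations. 3) Linear interpolation between surrounding doses. 4) Unreached endpoint = highest concentration. GI50 marks 50% less growth.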 Active and inactive are the calls of the source. Cut-off read from the data, not from the text of the source: active = GI50 up to about 1.1 µM and inactive = higher.

What was measured:
Assay in all cases: DTP human tumour cell line panel, 48 h
786-0 = system: 786-0
A498 = system: A498
A549 = system: A549
ACHN = system: ACHN
CAKI-1 = system: CAKI-1
CCRF-CEM = system: CCRF-CEM
COLO 205 = system: COLO 205
DLD-1 = system: DLD-1
DMS-114 = system: DMS-114
DMS-273 = system: DMS-273
EKVX = system: EKVX
HCC 2998 = system: HCC 2998
HCT-116 = system: HCT-116
HCT-15 = system: HCT-15
HL-60 = system: HL-60
HOP-62 = system: HOP-62
HOP-92 = system: HOP-92
IGROV-1 = system: IGROV-1
K562 = system: K562
KM-20L2 = system: KM-20L2
KM12 = system: KM12
LOX IMVI = system: LOX IMVI
LXFL 529 = system: LXFL 529
M14 = system: M14
M19-MEL = system: M19-MEL
MOLT-4 = system: MOLT-4
Malme-3M = system: Malme-3M
NCI-H226 = system: NCI-H226
NCI-H23 = system: NCI-H23
NCI-H460 = system: NCI-H460
NCI-H522 = system: NCI-H522
OVCAR-3 = system: OVCAR-3
OVCAR-4 = system: OVCAR-4
OVCAR-5 = system: OVCAR-5
OVCAR-8 = system: OVCAR-8
RPMI-8226 = system: RPMI-8226
RXF 393 = system: RXF 393
RXF 631 = system: RXF 631
SF-268 = system: SF-268
SF-295 = system: SF-295
SF-539 = system: SF-539
SK-MEL-28 = system: SK-MEL-28
SK-MEL-2 = system: SK-MEL-2
SK-MEL-5 = system: SK-MEL-5
SK-OV-3 = system: SK-OV-3
SN12C = system: SN12C
SNB-19 = system: SNB-19
SNB-75 = system: SNB-75
SNB-78 = system: SNB-78
SR = system: SR
SW-620 = system: SW-620
TK-10 = system: TK-10
U-251 = system: U-251
UACC-257 = system: UACC-257
UO-31 = system: UO-31
XF498 = system: XF498
HOP-18 = system: HOP-18
HT-29 = system: HT-29
UACC-62 = system: UACC-62

Measured: GI50

CC(=O)C1Cn2c(=O)c3cc4ccccc4cc3c(=O)n2C=C1C (stereo not given)
inactive: 786-0 > 100 µM | A498 43.5 µM | A549 > 100 µM | ACHN > 100 µM | CAKI-1 > 100 µM | CCRF-CEM > 100 µM | COLO 205 > 100 µM | DLD-1 > 100 µM | DMS-114 > 100 µM | DMS-273 > 100 µM | EKVX > 100 µM | HCC 2998 > 100 µM | HCT-116 > 100 µM | HL-60 > 100 µM | HOP-62 > 100 µM | HOP-92 61.2 µM | IGROV-1 > 100 µM | K562 > 100 µM | KM-20L2 > 100 µM | KM12 > 100 µM | LOX IMVI > 100 µM | LXFL 529 83.4 µM | M14 > 100 µM | M19-MEL > 100 µM | MOLT-4 > 100 µM | Malme-3M > 100 µM | NCI-H226 > 100 µM | NCI-H23 > 100 µM | NCI-H460 97.9 µM | NCI-H522 > 100 µM | OVCAR-3 > 100 µM | OVCAR-4 > 100 µM | OVCAR-5 > 100 µM | OVCAR-8 > 100 µM | RPMI-8226 > 100 µM | RXF 393 > 100 µM | RXF 631 > 100 µM | SF-268 > 100 µM | SF-295 > 100 µM | SF-539 > 100 µM | SK-MEL-28 > 100 µM | SK-MEL-2 > 100 µM | SK-MEL-5 91.4 µM | SK-OV-3 > 100 µM | SN12C > 100 µM | SNB-19 > 100 µM | SNB-75 67.8 µM | SNB-78 > 100 µM | SR > 100 µM | SW-620 > 100 µM | TK-10 > 100 µM | U-251 > 100 µM | UACC-257 > 100 µM | UO-31 > 100 µM | XF498 > 100 µM
76.7 µM: HCT-15

COc1cc(Br)c(CC2=NCCc3cc(OC)c(OC)cc32)cc1OC
31 µM: HCT-15
active: SF-295 0.7 µM
inactive: 786-0 16.7 µM | A498 14.9 µM | A549 21.1 µM | ACHN 14.8 µM | CAKI-1 15.9 µM | CCRF-CEM 19.7 µM | COLO 205 14.1 µM | DLD-1 45.4 µM | DMS-114 8.89 µM | DMS-273 15.9 µM | EKVX 35.7 µM | HCC 2998 16.4 µM | HCT-116 3.16 µM | HL-60 2.33 µM | HOP-18 11.3 µM | HOP-62 > 100 µM | HOP-92 1.64 µM | HT-29 2.16 µM | IGROV-1 12.2 µM | K562 5.4 µM | KM-20L2 3.18 µM | KM12 20.9 µM | LOX IMVI 9.93 µM | LXFL 529 12.5 µM | M14 12.9 µM | M19-MEL 27.9 µM | MOLT-4 15.8 µM | Malme-3M 25.9 µM | NCI-H226 11 µM | NCI-H23 9.71 µM | NCI-H460 2.35 µM | NCI-H522 16.9 µM | OVCAR-3 42.9 µM | OVCAR-4 28.9 µM | OVCAR-5 3.88 µM | OVCAR-8 48.1 µM | RPMI-8226 18.3 µM | RXF 631 10.2 µM | SF-268 51.2 µM | SF-539 11.7 µM | SK-MEL-28 19.7 µM | SK-MEL-2 53.1 µM | SK-MEL-5 16.7 µM | SK-OV-3 24.6 µM | SN12C 15.3 µM | SNB-19 48.8 µM | SNB-75 36.3 µM | SR 6.78 µM | SW-620 18 µM | TK-10 5.65 µM | U-251 11.3 µM | UACC-257 16.6 µM | UACC-62 7.13 µM | UO-31 11.3 µM

CC(=O)NNc1nc(C)c(C(=O)NNC(=O)C(=O)Nc2ccccc2C#N)s1
> 100 µM: HCT-15
inactive: 786-0 > 100 µM | A498 > 100 µM | A549 > 100 µM | ACHN > 100 µM | CAKI-1 > 100 µM | CCRF-CEM 65.9 µM | COLO 205 > 100 µM | DLD-1 > 100 µM | DMS-114 > 100 µM | DMS-273 > 100 µM | EKVX > 100 µM | HCC 2998 > 100 µM | HCT-116 > 100 µM | HL-60 > 100 µM | HOP-18 > 100 µM | HOP-62 > 100 µM | HOP-92 > 100 µM | HT-29 > 100 µM | IGROV-1 > 100 µM | K562 > 100 µM | KM-20L2 > 100 µM | KM12 50.1 µM | LOX IMVI > 100 µM | LXFL 529 > 100 µM | M14 > 100 µM | M19-MEL > 100 µM | MOLT-4 > 100 µM | Malme-3M > 100 µM | NCI-H226 > 100 µM | NCI-H23 > 100 µM | NCI-H460 > 100 µM | NCI-H522 88.1 µM | OVCAR-3 > 100 µM | OVCAR-4 > 100 µM | OVCAR-5 > 100 µM | OVCAR-8 > 100 µM | RPMI-8226 > 100 µM | RXF 393 > 100 µM | RXF 631 > 100 µM | SF-268 > 100 µM | SF-295 > 100 µM | SF-539 > 100 µM | SK-MEL-28 > 100 µM | SK-MEL-2 > 100 µM | SK-MEL-5 > 100 µM | SK-OV-3 > 100 µM | SN12C > 100 µM | SNB-19 > 100 µM | SNB-75 > 100 µM | SNB-78 > 100 µM | SR 87.1 µM | SW-620 > 100 µM | TK-10 > 100 µM | U-251 > 100 µM | UACC-257 > 100 µM | UACC-62 > 100 µM | UO-31 > 100 µM
